Data as given in ChEMBL document CHEMBL4219271, “Synthesis and anti-proliferative activity of allogibberic acid derivatives containing 1,2,3-triazole pharmacophore” (Bioorg Med Chem Lett, 2018).

Experiments:
[1] = tested on: HL-60; test: Cytotoxicity against human HL60 cells assessed as decrease in cell viability after 4 days by MTT assay; type: functional, cell-based; settings: HL-60, 96 h
[2] = tested on: SMMC-7721; test: Cytotoxicity against human SMMC7721 cells assessed as decrease in cell viability after 4 days by MTT assay; type: functional, cell-based; settings: SMMC-7721, 96 h
[3] = tested on: A549; test: Cytotoxicity against human A549 cells assessed as decrease in cell viability after 4 days by MTT assay; type: functional, cell-based; settings: A549, 96 h
[4] = tested on: MCF7; test: Cytotoxicity against human MCF7 cells assessed as decrease in cell viability after 4 days by MTT assay; type: functional, cell-based; settings: MCF7, 96 h
[5] = tested on: SW480; test: Cytotoxicity against human SW480 cells assessed as decrease in cell viability after 4 days by MTT assay; type: functional, cell-based; settings: SW480, 96 h
[6] = tested on: SW480; test: Potency index, ratio of cisplatin IC50 to compound IC50 for human SW480 cells; type: functional
[7] = tested on: SMMC-7721; test: Induction of apoptosis in human SMMC7721 cells assessed as viable cells at 0.425 uM after 48 hrs by Annexin V-FITC/PI double staining based flow cytometry (reference value: 100%); type: functional; settings: SMMC-7721, 48 h, read-out: Activity
[8] = tested on: SMMC-7721; test: Induction of apoptosis in human SMMC7721 cells assessed as early apoptotic cells at 0.425 uM after 48 hrs by Annexin V-FITC/PI double staining based flow cytometry (reference value: 0.035%); type: functional
[9] = tested on: SMMC-7721; test: Induction of apoptosis in human SMMC7721 cells assessed as late apoptotic cells at 0.425 uM after 48 hrs by Annexin V-FITC/PI double staining based flow cytometry (reference value: 0%); type: functional
[10] = tested on: SMMC-7721; test: Induction of apoptosis in human SMMC7721 cells assessed as necrotic cells at 0.425 uM after 48 hrs by Annexin V-FITC/PI double staining based flow cytometry (reference value: 0%); type: functional
[11] = tested on: SMMC-7721; test: Induction of apoptosis in human SMMC7721 cells assessed as viable cells at 0.85 uM after 48 hrs by Annexin V-FITC/PI double staining based flow cytometry (reference value: 100%); type: functional; settings: SMMC-7721, 48 h, read-out: Activity
[12] = tested on: SMMC-7721; test: Induction of apoptosis in human SMMC7721 cells assessed as early apoptotic cells at 0.85 uM after 48 hrs by Annexin V-FITC/PI double staining based flow cytometry (reference value: 0.035%); type: functional
[13] = tested on: SMMC-7721; test: Induction of apoptosis in human SMMC7721 cells assessed as late apoptotic cells at 0.85 uM after 48 hrs by Annexin V-FITC/PI double staining based flow cytometry (reference value: 0%); type: functional
[14] = tested on: SMMC-7721; test: Induction of apoptosis in human SMMC7721 cells assessed as necrotic cells at 0.85 uM after 48 hrs by Annexin V-FITC/PI double staining based flow cytometry (reference value: 0%); type: functional
[15] = tested on: SMMC-7721; test: Induction of apoptosis in human SMMC7721 cells assessed as viable cells at 1.7 uM after 48 hrs by Annexin V-FITC/PI double staining based flow cytometry (reference value: 100%); type: functional; settings: SMMC-7721, 48 h, read-out: Activity
[16] = tested on: SMMC-7721; test: Induction of apoptosis in human SMMC7721 cells assessed as early apoptotic cells at 1.7 uM after 48 hrs by Annexin V-FITC/PI double staining based flow cytometry (reference value: 0.035%); type: functional
[17] = tested on: SMMC-7721; test: Induction of apoptosis in human SMMC7721 cells assessed as late apoptotic cells at 1.7 uM after 48 hrs by Annexin V-FITC/PI double staining based flow cytometry (reference value: 0%); type: functional
[18] = tested on: SMMC-7721; test: Induction of apoptosis in human SMMC7721 cells assessed as necrotic cells at 1.7 uM after 48 hrs by Annexin V-FITC/PI double staining based flow cytometry (reference value: 0%); type: functional
[19] = tested on: SMMC-7721; test: Induction of apoptosis in human SMMC7721 cells assessed as viable cells at 3.4 uM after 48 hrs by Annexin V-FITC/PI double staining based flow cytometry (reference value: 100%); type: functional; settings: SMMC-7721, 48 h, read-out: Activity
[20] = tested on: SMMC-7721; test: Induction of apoptosis in human SMMC7721 cells assessed as early apoptotic cells at 3.4 uM after 48 hrs by Annexin V-FITC/PI double staining based flow cytometry (reference value: 0.035%); type: functional
[21] = tested on: SMMC-7721; test: Induction of apoptosis in human SMMC7721 cells assessed as late apoptotic cells at 3.4 uM after 48 hrs by Annexin V-FITC/PI double staining based flow cytometry (reference value: 0%); type: functional
[22] = tested on: SMMC-7721; test: Induction of apoptosis in human SMMC7721 cells assessed as necrotic cells at 3.4 uM after 48 hrs by Annexin V-FITC/PI double staining based flow cytometry (reference value: 0%); type: functional
[23] = tested on: SMMC-7721; test: Cell cycle arrest in human SMMC7721 cells assessed as accumulation at S phase after 24 hrs by propidium iodide staining based flow cytometry; type: functional
[24] = tested on: SMMC-7721; test: Cell cycle arrest in human SMMC7721 cells assessed as accumulation at G0/G1 phase at 0.425 uM after 24 hrs by propidium iodide staining based flow cytometry (reference value: 77.85 +/- 1.90%); type: functional
[25] = tested on: SMMC-7721; test: Cell cycle arrest in human SMMC7721 cells assessed as accumulation at G0/G1 phase at 0.85 uM after 24 hrs by propidium iodide staining based flow cytometry (reference value: 77.85 +/- 1.90%); type: functional
[26] = tested on: SMMC-7721; test: Cell cycle arrest in human SMMC7721 cells assessed as accumulation at G0/G1 phase at 1.7 uM after 24 hrs by propidium iodide staining based flow cytometry (reference value: 77.85 +/- 1.90%); type: functional
[27] = tested on: SMMC-7721; test: Cell cycle arrest in human SMMC7721 cells assessed as accumulation at G0/G1 phase at 3.4 uM after 24 hrs by propidium iodide staining based flow cytometry (reference value: 77.85 +/- 1.90%); type: functional
[28] = tested on: SMMC-7721; test: Cell cycle arrest in human SMMC7721 cells assessed as accumulation at S phase at 0.425 uM after 24 hrs by propidium iodide staining based flow cytometry (reference value: 13.71 +/- 0.62%); type: functional
[29] = tested on: SMMC-7721; test: Cell cycle arrest in human SMMC7721 cells assessed as accumulation at S phase at 0.85 uM after 24 hrs by propidium iodide staining based flow cytometry (reference value: 13.71 +/- 0.62%); type: functional
[30] = tested on: SMMC-7721; test: Cell cycle arrest in human SMMC7721 cells assessed as accumulation at S phase at 1.7 uM after 24 hrs by propidium iodide staining based flow cytometry (reference value: 13.71 +/- 0.62%); type: functional
[31] = tested on: SMMC-7721; test: Cell cycle arrest in human SMMC7721 cells assessed as accumulation at S phase at 3.4 uM after 24 hrs by propidium iodide staining based flow cytometry (reference value: 13.71 +/- 0.62%); type: functional
[32] = tested on: SMMC-7721; test: Cell cycle arrest in human SMMC7721 cells assessed as accumulation at G2/M phase at 0.425 uM after 24 hrs by propidium iodide staining based flow cytometry (reference value: 5.72 +/- 0.59%); type: functional
[33] = tested on: SMMC-7721; test: Cell cycle arrest in human SMMC7721 cells assessed as accumulation at G2/M phase at 0.85 uM after 24 hrs by propidium iodide staining based flow cytometry (reference value: 5.72 +/- 0.59%); type: functional
[34] = tested on: SMMC-7721; test: Cell cycle arrest in human SMMC7721 cells assessed as accumulation at G2/M phase at 1.7 uM after 24 hrs by propidium iodide staining based flow cytometry (reference value: 5.72 +/- 0.59%); type: functional
[35] = tested on: SMMC-7721; test: Cell cycle arrest in human SMMC7721 cells assessed as accumulation at G2/M phase at 3.4 uM after 24 hrs by propidium iodide staining based flow cytometry (reference value: 5.72 +/- 0.59%); type: functional

Compound: C=C1C(=O)[C@]23C[C@@]1(O)CC[C@H]2c1ccc(O)c(C)c1[C@@H]3Cn1cc(-c2ccc(F)cc2)nn1
- IC50 [1]: 660 nM
- IC50 [2]: 850 nM
- IC50 [3]: 940 nM
- IC50 [4]: 1700 nM
- IC50 [5]: 250 nM
- Ratio IC50 [6]: 33
- viability at 0.425 µM [7]: 80.9%
- Activity [8]: 3.31%
- Activity [9]: 12.7%
- Activity [10]: 3.14%
- viability at 0.85 µM [11]: 79.8%
- Activity [12]: 7.83%
- Activity [13]: 10.7%
- Activity [14]: 1.72%
- viability at 1.7 µM [15]: 43.4%
- Activity [16]: 31.9%
- Activity [17]: 22.7%
- Activity [18]: 1.97%
- viability at 3.4 µM [19]: 2.17%
- Activity [20]: 90.4%
- Activity [21]: 7.41%
- Activity [22]: 0.053%
- Activity [23]: Dose-dependent effect
- Activity [24]: 78.27%
- Activity [25]: 74.23%
- Activity [26]: 70.87%
- Activity [27]: 71.54%
- Activity [28]: 13.92%
- Activity [29]: 17.38%
- Activity [30]: 19.35%
- Activity [31]: 22.73%
- Activity [32]: 6.24%
- Activity [33]: 7.7%
- Activity [34]: 6.05%
- Activity [35]: 0.89%
